# Values joined by “and” are separate entries in the source; they are usually repeats but may differ in a detail not shown here. Identical values can stand only once. Toxic doses and inconclusive results are not listed.
# Test system: BDF1 mice, B16 melanoma ip, median survival T/C
# Experiment: NCI In Vivo Anticancer Drug Screen. Data for tumor model B16 Melanoma (intraperitoneal) in B6D2F1 (BDF1) mice
# Conditions: endpoint: median survival time, higher = longer survival
# Procedure, shortened: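 Survival or tumor size is measured after treatment of tumor-bearing mice and normalised to the vehicle-treated control group.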
# [1] = dose: 6.25 mg/kg/injection, schedule: Q01DX009 (ip), vehicle: saline
# [2] = dose: 12.5 mg/kg/injection, schedule: Q01DX009 (ip), vehicle: saline
# [3] = dose: 25.0 mg/kg/injection, schedule: Q01DX009 (ip), vehicle: saline
# [4] = dose: 50.0 mg/kg/injection, schedule: Q01DX009 (ip), vehicle: saline
# [5] = dose: 100.0 mg/kg/injection, schedule: Q01DX009 (ip), vehicle: saline
# [6] = dose: 12.5 mg/kg/injection, schedule: Q01DX009 (ip), vehicle: saline with Tween-80
# [7] = dose: 25.0 mg/kg/injection, schedule: Q01DX009 (ip), vehicle: saline with Tween-80
# [8] = dose: 6.25 mg/kg/injection, schedule: Q01DX009 (ip), vehicle: Klucel (hydroxypropylcellulose) (HPC)
# [9] = dose: 12.5 mg/kg/injection, schedule: Q01DX009 (ip), vehicle: Klucel (hydroxypropylcellulose) (HPC)
# [10] = dose: 50.0 mg/kg/injection, schedule: Q01DX009 (ip), vehicle: Klucel (hydroxypropylcellulose) (HPC)
# [11] = dose: 1.5 mg/kg/injection, schedule: Q01DX009 (ip), vehicle: saline
# [12] = dose: 3.0 mg/kg/injection, schedule: Q01DX009 (ip), vehicle: saline
# [13] = dose: 6.25 mg/kg/injection, schedule: Q01DX009 (ip), vehicle: saline with Tween-80
# [14] = dose: 100.0 mg/kg/injection, schedule: Q01DX009 (ip), vehicle: Klucel (hydroxypropylcellulose) (HPC)
# [15] = dose: 200.0 mg/kg/injection, schedule: Q01DX009 (ip), vehicle: Klucel (hydroxypropylcellulose) (HPC)
# [16] = dose: 25.0 mg/kg/injection, schedule: Q01DX009 (ip), vehicle: Klucel (hydroxypropylcellulose) (HPC)
# [17] = dose: 25.0 mg/kg/injection, schedule: Q01DX009 (ip), vehicle: water
# [18] = dose: 50.0 mg/kg/injection, schedule: Q01DX009 (ip), vehicle: water
# [19] = dose: 100.0 mg/kg/injection, schedule: Q01DX009 (ip), vehicle: water
# [20] = dose: 200.0 mg/kg/injection, schedule: Q01DX009 (ip), vehicle: water
# [21] = dose: 50.0 mg/kg/injection, schedule: Q01DX009 (ip), vehicle: saline with Tween-80
# [22] = dose: 100.0 mg/kg/injection, schedule: Q01DX009 (ip), vehicle: saline with Tween-80
compound,measurement,setting,value
CC1NCCOC1c1ccccc1 (centres undefined),T/C,"dose: 3.12 mg/kg/injection, schedule: Q01DX009 (ip), vehicle: saline",100 % of control
same,T/C,[1],97 % of control
same,T/C,[2],104 % of control
same,T/C,[3],90 % of control and 124 % of control
same,T/C,[4],90 % of control and 113 % of control
same,T/C,[5],111 % of control
O=C(CCl)N1CCC2(CC1)SSC1(CCN(C(=O)CCl)CC1)S2,T/C,[6],100 % of control
same,T/C,[7],90 % of control
CS(=O)(=O)OCCN(CCOS(C)(=O)=O)c1ccc(C=Nc2ccc(-c3csc(Cc4ccccc4)n3)cc2)c(Cl)c1,T/C,[8],107 % of control and 110 % of control
same,T/C,[9],120 % of control
same,T/C,[10],153 % of control
CC(=O)SCCC(=O)O,T/C,"dose: 0.75 mg/kg/injection, schedule: Q01DX009 (ip), vehicle: saline",107 % of control
same,T/C,[11],112 % of control
same,T/C,[12],114 % of control
O=C(CCN1CC1)OCCOC(=O)CCN1CC1,T/C,[11],118 % of control
same,T/C,[12],110 % of control
O=C(c1cccc(C(=O)n2c3c(c4ccccc42)CCCC3)c1)n1c2c(c3ccccc31)CCCC2,T/C,[13],94 % of control
same,T/C,[6],102 % of control
same,T/C,[7],100 % of control
O=C1NC(c2ccccc2)N=C2Oc3ccccc3C=C12 (centres undefined),T/C,"dose: 1.56 mg/kg/injection, schedule: Q01DX009 (ip), vehicle: saline with Tween-80",107 % of control
same,T/C,"dose: 3.12 mg/kg/injection, schedule: Q01DX009 (ip), vehicle: saline with Tween-80",109 % of control and 113 % of control
same,T/C,[13],108 % of control and 117 % of control
same,T/C,[6],117 % of control
same,T/C,[7],117 % of control
CCCCNC(=O)Nc1cc(C)ccc1C,T/C,[14],100 % of control
same,T/C,[15],100 % of control
COc1c(CNC(=O)CCl)cc2[nH]c(C)cc2c1CNC(=O)CCl,T/C,[8],101 % of control
same,T/C,[9],106 % of control
same,T/C,[16],103 % of control
same,T/C,[10],104 % of control
same,T/C,[14],108 % of control
same,T/C,[15],97 % of control
O=C(NO)c1ccncc1,T/C,[17],96 % of control
same,T/C,[18],106 % of control and 111 % of control
same,T/C,[19],93 % of control and 105 % of control
same,T/C,[20],100 % of control
same,T/C,"dose: 300.0 mg/kg/injection, schedule: Q01DX009 (ip), vehicle: water",93 % of control
same,T/C,"dose: 400.0 mg/kg/injection, schedule: Q01DX009 (ip), vehicle: water",100 % of control
same,T/C,"dose: 600.0 mg/kg/injection, schedule: Q01DX009 (ip), vehicle: water",105 % of control and 107 % of control
same,T/C,"dose: 700.0 mg/kg/injection, schedule: Q01DX009 (ip), vehicle: water",100 % of control
CC(C(=O)O)C(=O)O.[NH2-].[NH2-].[Pt+2],T/C,"dose: 0.78 mg/kg/injection, schedule: Q01DX009 (ip), vehicle: Klucel (hydroxypropylcellulose) (HPC)",102 % of control
same,T/C,"dose: 1.56 mg/kg/injection, schedule: Q01DX009 (ip), vehicle: Klucel (hydroxypropylcellulose) (HPC)",109 % of control
same,T/C,"dose: 3.12 mg/kg/injection, schedule: Q01DX009 (ip), vehicle: Klucel (hydroxypropylcellulose) (HPC)",120 % of control
same,T/C,[8],156 % of control
same,T/C,[1],124 % of control
same,T/C,[9],175 % of control
same,T/C,[2],160 % of control
same,T/C,[16],216 % of control
same,T/C,[3],175 % of control
same,T/C,[4],209 % of control
same,T/C,[5],202 % of control
CCCCNC(C)(C)C(SSC(c1ccc(Cl)cc1)C(C)(C)NCCCC)c1ccc(Cl)cc1 (centres undefined),T/C,[1],109 % of control
same,T/C,[2],97 % of control
same,T/C,[3],88 % of control
O=C1CN(CN2CCOCC2)C(=O)CN1CN1CCOCC1,T/C,[2],98 % of control
same,T/C,[3],102 % of control
same,T/C,[4],112 % of control
same,T/C,[5],104 % of control
same,T/C,"dose: 200.0 mg/kg/injection, schedule: Q01DX009 (ip), vehicle: saline",101 % of control
S=c1nc[nH]c2nc[nH]c12.[Ag],T/C,"dose: 300.0 mg/kg/injection, schedule: Q01DX009 (ip), vehicle: carboxymethylcellulose (CMC)",118 % of control
CC(=O)CC(C)=O.CC(=O)CC(C)=O.O=N[O-].O=N[O-].[Co],T/C,[6],96 % of control
same,T/C,[7],103 % of control
same,T/C,[21],91 % of control
COc1ccc2nc3cc(Cl)ccc3c(NCCO)c2c1,T/C,"dose: 37.5 mg/kg/injection, schedule: Q01DX009 (ip), vehicle: saline with Tween-80",104 % of control
same,T/C,"dose: 75.0 mg/kg/injection, schedule: Q01DX009 (ip), vehicle: saline with Tween-80",106 % of control
O=C1CCCC(=O)C1C(C[N+](=O)[O-])c1ccccc1 (centres undefined),T/C,[9],86 % of control
same,T/C,[16],94 % of control
same,T/C,[10],107 % of control
same,T/C,[14],107 % of control
CNC(=O)Nc1c(C)cccc1C,T/C,[14],96 % of control
same,T/C,[15],100 % of control
Brc1cc(Br)c(-c2c(Br)cc(Br)cc2Br)c(Br)c1,T/C,[14],102 % of control
same,T/C,[15],88 % of control
CC(C)c1ccc(C2CCCCC2O)cc1 (centres undefined),T/C,[21],94 % of control
same,T/C,[22],88 % of control
O=C(COc1cc(Cl)c(Cl)cc1Cl)OCCOc1cc(Cl)c(Cl)cc1Cl,T/C,"dose: 12.0 mg/kg/injection, schedule: Q01DX009 (ip), vehicle: Klucel (hydroxypropylcellulose) (HPC)",98 % of control
same,T/C,"dose: 24.0 mg/kg/injection, schedule: Q01DX009 (ip), vehicle: Klucel (hydroxypropylcellulose) (HPC)",98 % of control
same,T/C,"dose: 48.0 mg/kg/injection, schedule: Q01DX009 (ip), vehicle: Klucel (hydroxypropylcellulose) (HPC)",91 % of control
same,T/C,"dose: 96.0 mg/kg/injection, schedule: Q01DX009 (ip), vehicle: Klucel (hydroxypropylcellulose) (HPC)",93 % of control
CC(C)Nc1ccc(Nc2ccc(NC(C)C)cc2)cc1,T/C,"dose: 4.5 mg/kg/injection, schedule: Q01DX009 (ip), vehicle: alcohol",100 % of control
same,T/C,"dose: 6.75 mg/kg/injection, schedule: Q04DX003 (ip), vehicle: alcohol",102 % of control
same,T/C,"dose: 9.0 mg/kg/injection, schedule: Q01DX009 (ip), vehicle: alcohol",92 % of control
same,T/C,"dose: 13.5 mg/kg/injection, schedule: Q04DX003 (ip), vehicle: alcohol",92 % of control and 97 % of control
F[B-](F)(F)F,T/C,"dose: 12.5 mg/kg/injection, schedule: Q01DX009 (ip), vehicle: gum acacia",104 % of control
same,T/C,"dose: 25.0 mg/kg/injection, schedule: Q01DX009 (ip), vehicle: gum acacia",114 % of control
same,T/C,"dose: 50.0 mg/kg/injection, schedule: Q01DX009 (ip), vehicle: gum acacia",117 % of control
same,T/C,"dose: 100.0 mg/kg/injection, schedule: Q01DX009 (ip), vehicle: gum acacia",105 % of control
same,T/C,"dose: 200.0 mg/kg/injection, schedule: Q01DX009 (ip), vehicle: gum acacia",107 % of control
[O-][n+]1c(CN2CCCCC2)nc2cccc3c2c1-c1ccccc1-3,T/C,[10],102 % of control
same,T/C,[14],119 % of control
same,T/C,[15],113 % of control
COc1ccccc1N1CCN(CCCC(=O)c2ccc(F)cc2)CC1,T/C,"dose: 0.09 mg/kg/injection, schedule: Q04DX003 (ip), vehicle: Klucel (hydroxypropylcellulose) (HPC)",93 % of control
same,T/C,"dose: 0.19 mg/kg/injection, schedule: Q04DX003 (ip), vehicle: Klucel (hydroxypropylcellulose) (HPC)",91 % of control
same,T/C,"dose: 0.39 mg/kg/injection, schedule: Q04DX003 (ip), vehicle: Klucel (hydroxypropylcellulose) (HPC)",96 % of control
same,T/C,"dose: 0.78 mg/kg/injection, schedule: Q04DX003 (ip), vehicle: Klucel (hydroxypropylcellulose) (HPC)",87 % of control
same,T/C,"dose: 1.56 mg/kg/injection, schedule: Q04DX003 (ip), vehicle: Klucel (hydroxypropylcellulose) (HPC)",90 % of control
same,T/C,[8],92 % of control
same,T/C,[9],92 % of control
same,T/C,[16],100 % of control
same,T/C,[10],105 % of control
C=CCc1ccccc1OC,T/C,[3],116 % of control
same,T/C,[4],109 % of control
same,T/C,[5],106 % of control
O=C1NC(c2ccccc2Cl)Nc2ccccc21 (centres undefined),T/C,[10],103 % of control
same,T/C,[14],98 % of control
same,T/C,[15],98 % of control
same,T/C,"dose: 400.0 mg/kg/injection, schedule: Q01DX009 (ip), vehicle: Klucel (hydroxypropylcellulose) (HPC)",108 % of control
CC1=C(c2cc3ccccc3c3ccccc23)CCCC1,T/C,[22],90 % of control
same,T/C,"dose: 200.0 mg/kg/injection, schedule: Q01DX009 (ip), vehicle: saline with Tween-80",88 % of control
same,T/C,"dose: 400.0 mg/kg/injection, schedule: Q01DX009 (ip), vehicle: saline with Tween-80",91 % of control
CC1(C)C=CC2=C(O1)C(=O)c1ccccc1C2=O,T/C,[17],104 % of control
same,T/C,[18],99 % of control
same,T/C,[19],93 % of control
same,T/C,[20],91 % of control
